Results: paper PMC8222254, “Self-assembly of an anion receptor with metal-dependent kinase inhibition and potent in vitro anti-cancer properties” (Nature Communications, 2021)
pIC50: −log10 of the molar value. “And” between values parts separate entries of the source, which are not always exact repeats. Identical values can stand only once. Like-named read-outs stand apart in the source and are kept apart here.

What was measured:
Type in all cases: cell-based, human
ARPE-19 non-cancer cells = experiment: Chemosensitivity, 96 h continuous exposure, MTT assay
Summary of the method: (§1)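 Growth inhibition is measured by MTT after cells are dosed for 96 h without washout. The 50% growth-reduction concentration is then interpolated from the curves.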

MCF10A non-cancer cells = experiment: as above
Summary of the method: as §1

H460 = experiment: as above;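 for SI (NPI): adult human brain neural progenitor non-cancer cells from an epilepsy surgery patient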;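 for Selectivity Index using the NPI non-cancer cell line: adult human brain neural progenitor non-cancer cells from an epilepsy surgery patient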
Summary of the method: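 H460 lung and PSN1 pancreatic carcinoma lines, grown in RPMI-1640 with 10% FBS, were plated at 2 × 10^3 cells/well, dosed across a concentration range for 96 h, then given MTT for 4 h. Formazan absorbance at 540 nm gave IC50 values.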

MiaPaCa2 = experiment: as above;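 for SI (NPI): adult human brain neural progenitor non-cancer cells from an epilepsy surgery patient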;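 for Selectivity Index using the NPI non-cancer cell line: adult human brain neural progenitor non-cancer cells from an epilepsy surgery patient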
Summary of the method: as §1

ARPE-19 = experiment: Quantification of cellular ATP levels (CellTiterGlo); settings: ARPE-19 cells, average of runs, relative to 0 µM = 100
Experimental: ARPE-19 and HCT116 p53^+/+ cells were seeded in 96-well opaque plates at a density of 7500 cells/well. 24 h after seeding, cells were treated for 20 h with a range of concentrations of [[…]]^6+, [L2Zn3]^6+, [[…]]^6+, or vehicle control (2-fold serial dilution from 100-3.125 μM) before determining total cellular ATP content by quantification of luminescence (CellTiterGlo® assay, Promega). ATP levels were normalised relative to levels in vehicle control-treated cells.

HCT116 p53-/- = experiment: Confocal imaging of autophagic cells (CYTO-ID); settings: 3.125 µM, 40 h
Experimental: Cells were seeded in Lumox chamber slides (8-well, Sarstedt) at a density of 1.25 × 10^4 cells/well (ARPE-19) or 5.625 × 10^4 cells/well (HCT116 p53^−/− and HCT116 p53^+/+). 24 h after seeding, cells were treated with 3.125 μM of [L2Cu3]^6+, [L2Zn3]^6+, [L2Mn3]^6+, or vehicle control for 40 h before removal and addition of CYTO-ID Green autophagic dye (1:500 dilution, Enzo Life Sciences) and Hoechst 3342 nuclear counter stain for 30 min at 37 °C. Media was then replaced before imaging using a Zeiss LSM880 confocal laser scanning microscope.

Question: With `[Cu+2].[Cu+2].[Cu+2].c1ccc(-c2csc(NCCN(CCNc3nc(-c4ccccn4)cs3)CCNc3nc(-c4ccccn4)cs3)n2)nc1.c1ccc(-c2csc(NCCN(CCNc3nc(-c4ccccn4)cs3)CCNc3nc(-c4ccccn4)cs3)n2)nc1` [[L2Cu3]6+] as the molecule, how does the pIC50 (ARPE-19 non-cancer cells; ARPE-19, 96 h, MTT, individual run, read-out: IC50 values for each replicate) read?
Answer: The pIC50 was 4.31 and 4.36 and 4.24 and 4.18 and 4.33.

Question: And the pIC50 (ARPE-19 non-cancer cells; ARPE-19, 96 h, MTT, mean of at least 3 independent experiments, read-out: Mean IC50)?
Answer: The pIC50 was 4.28.

Question: What about the pIC50 (ARPE-19 non-cancer cells; ARPE-19, mean of replicates, read-out: Mean IC50) of the same molecule?
Answer: The pIC50 was 4.28.

Question: What about the pIC50 (ARPE-19 non-cancer cells; ARPE-19 non-cancer, read-out: Mean IC50 values) of the same molecule?
Answer: Its pIC50 is 4.28.

Question: And the “Relative potency (+ anion to no anion), Ratio + anion:no anion” value (“Relative potency … Ratio + anion:no anion” for short) (ARPE-19 non-cancer cells; ratio of IC50, ARPE-19)?
Answer: The value was 1.

Question: And the pIC50 (MCF10A non-cancer cells; MCF10A non-cancer, read-out: Mean IC50 values)?
Answer: Its pIC50 is 4.32.

Question: And the pIC50 (MCF10A non-cancer cells; MCF10A, 96 h, MTT, individual run, read-out: IC50 values for each replicate)?
Answer: Its pIC50 is 4.28 and 4.24 and 4.41 and 4.36 and 4.31.

Question: What about the pIC50 (MCF10A non-cancer cells; MCF10A, 96 h, MTT, mean of at least 3 independent experiments, read-out: Mean IC50) of the same molecule?
Answer: The pIC50 was 4.32.

Question: What about the pIC50 (MCF10A non-cancer cells; MCF10A, mean of replicates, read-out: Mean IC50) of the same molecule?
Answer: Its pIC50 is 4.32.

Question: What about the “Relative potency … Ratio + anion:no anion” value (MCF10A non-cancer cells; ratio of IC50, MCF10A) of the same molecule?
Answer: The value was 1.

Question: What about the pIC50 (H460; H460, 96 h, MTT, individual run, read-out: IC50 values for each replicate) of the same molecule?
Answer: Its pIC50 is 6.59 and 6.63 and 6.35 and 6.79.

Question: And the pIC50 (H460; H460, 96 h, MTT, mean of at least 3 independent experiments, read-out: Mean IC50)?
Answer: The pIC50 was 6.56.

Question: And the pIC50 (H460; H460, mean of replicates, read-out: Mean IC50)?
Answer: Its pIC50 is 6.56.

Question: And the pIC50 (H460; H460, read-out: Mean IC50 values)?
Answer: Its pIC50 is 6.56.

Question: And the “Selectivity index (ARPE19)” value (H460; IC50 ARPE-19 / IC50 H460)?
Answer: Its value is 190.69.

Question: And the “Selectivity index (MCF10A)” value (H460; IC50 MCF10A / IC50 H460)?
Answer: The value was 174.86.

Question: What about the “Selectivity Index using the NPI non-cancer cell line” value (H460; IC50 NP1 / IC50 H460) of the same molecule?
Answer: Its value is 156.12.

Question: What about the “SI (ARPE19)” value (H460; mean IC50 ARPE-19 / mean IC50 H460) of the same molecule?
Answer: Its value is 190.69.

Question: And the “SI (MCF10A)” value (H460; mean IC50 MCF10A / mean IC50 H460)?
Answer: Its value is 174.86.

Question: And the “SI (NPI)” value (H460; mean IC50 NP1 / mean IC50 H460)?
Answer: The value was 156.12.

Question: What about the “Relative potency … Ratio + anion:no anion” value (H460; ratio of IC50, H460) of the same molecule?
Answer: Its value is 1.

Question: What about the “Selectivity indices relative to ARPE-19, Ratio + anion:no anion” value (H460; ratio of SI (ARPE-19), H460) of the same molecule?
Answer: Its value is 1.

Question: What about the “Selectivity indices relative to MCF10A, Ratio + anion:no anion” value (H460; ratio of SI (MCF 10A), H460) of the same molecule?
Answer: The value was 1.

Question: What about the “Selectivity index (ARPE19)” value (MiaPaCa2; IC50 ARPE-19 / IC50 MiaPaCa2) of the same molecule?
Answer: The value was 4.46.

Question: What about the “Selectivity index (MCF10A)” value (MiaPaCa2; IC50 MCF10A / IC50 MiaPaCa2) of the same molecule?
Answer: The value was 4.09.

Question: And the “Selectivity Index using the NPI non-cancer cell line” value (MiaPaCa2; IC50 NP1 / IC50 MiaPaCa2)?
Answer: Its value is 3.65.

Question: What about the pIC50 (MiaPaCa2; MiaPaCa2, 96 h, MTT, individual run, read-out: IC50 values for each replicate) of the same molecule?
Answer: Its pIC50 is 4.77 and 5.18 and 5.20 and 5.28 and 4.75.

Question: What about the pIC50 (MiaPaCa2; MiaPaCa2, 96 h, MTT, mean of at least 3 independent experiments, listed as [L2Cu3]^6+, read-out: Mean IC50) of the same molecule?
Answer: The pIC50 was under 5.00.

Question: What about the pIC50 (MiaPaCa2; MiaPaCa2, 96 h, MTT, mean of at least 3 independent experiments, read-out: Mean IC50) of the same molecule?
Answer: The pIC50 was 4.93.

Question: What about the pIC50 (MiaPaCa2; MiaPaCa2, mean of replicates, read-out: Mean IC50) of the same molecule?
Answer: The pIC50 was 4.93.

Question: And the pIC50 (MiaPaCa2; MiaPaCa2, read-out: Mean IC50 values)?
Answer: The pIC50 was 4.93.

Question: And the “SI (ARPE19)” value (MiaPaCa2; mean IC50 ARPE-19 / mean IC50 MiaPaCa2)?
Answer: The value was 4.46.

Question: And the “SI (MCF10A)” value (MiaPaCa2; mean IC50 MCF10A / mean IC50 MiaPaCa2)?
Answer: Its value is 4.09.

Question: And the “SI (NPI)” value (MiaPaCa2; mean IC50 NP1 / mean IC50 MiaPaCa2)?
Answer: The value was 3.65.

Question: And the “Relative potency … Ratio + anion:no anion” value (MiaPaCa2; ratio of IC50, MiaPaCa2)?
Answer: Its value is 1.

Question: What about the “Selectivity indices relative to ARPE-19, Ratio + anion:no anion” value (MiaPaCa2; ratio of SI (ARPE-19), MiaPaCa2) of the same molecule?
Answer: The value was 1.

Question: What about the “Selectivity indices relative to MCF10A, Ratio + anion:no anion” value (MiaPaCa2; ratio of SI (MCF 10A), MiaPaCa2) of the same molecule?
Answer: Its value is 1.

Question: What about the “% ATP Activity (Average)” value (ARPE-19; 3.125 µM complex) of the same molecule?
Answer: Its value is 91.48%.

Question: And the “% ATP Activity (Average)” value (ARPE-19; 6.25 µM complex)?
Answer: The value was 92.26%.

Question: What about the “% ATP Activity (Average)” value (ARPE-19; 12.5 µM complex) of the same molecule?
Answer: Its value is 92.93%.

Question: What about the “% ATP Activity (Average)” value (ARPE-19; 25 µM complex) of the same molecule?
Answer: Its value is 95.14%.

Question: What about the “% ATP Activity (Average)” value (ARPE-19; 50 µM complex) of the same molecule?
Answer: The value was 85.50%.

Question: What about the “% ATP Activity (Average)” value (ARPE-19; 100 µM complex) of the same molecule?
Answer: The value was 56.08%.

Question: What about the “induction of vacuoles / autophagy (CYTO-ID)” value (HCT116 p53-/-) of the same molecule?
Answer: The value was “no or little autophagy”.

Question: And the “induction of vacuoles / autophagy (CYTO-ID)” value (HCT116 p53-/-; listed as [L2Cu3]^6+)?
Answer: The value was “did not”.
